# Assay results as given in patent US12329736B2, “Carboxylate ligand modified ferric iron hydroxide compositions for use in the treatment or prevention of iron deficiency associated with liver diseases” (Nemysis Ltd., priority 2020, dated 2025).
# “Also recorded” adds a separate entry of the source.
# Settings: Wistar rats
# Excerpt: 5-6 week old Wistar rats (n=72; 36 female and 36 male) were housed in harmonious social groups (2-3 animals per cage and sex) in a light- and temperature-controlled room with ad libitum access to standard pellet diet and water. Rats were acclimatised for 7 days for male rats and 14 days for female rats, prior to treatment commencement.
# Animals were gavaged for 28 days (n=36; 18 female and 18 male) or 90 days (n=36; 18 female and 18 male). Following necropsy, livers were harvested, flash frozen in liquid nitrogen and stored at −80° C. until further analysis.
# Livers were thawed at room temperature, and a sample of approximately 800 mg was cut out, cleaned from any fat and weighed on a balance accurate to 0.0001 g. Weighed samples were digested in concentrated HNO3 (Nitric acid ≥65%, 84380-2.5L-M, Merck) and H2O2 (Hydrogen peroxide solution, 16911-1L-F, Sigma-Aldrich) at a 5:1 ratio. Samples were digested at room temperature for 24 h and if necessary at 40° C. for another 24 h to allow complete digestion. Following complete digestion samples were diluted 1:4 in UHP water to achieve a final HNO3 concentration of 6-8%. Total elemental analysis for iron was carried out on a Jobin Yvon Horiba Ultima 2C ICP-OES (Instrument SA, Longjumeau, France), equipped with a concentric nebulizer and cyclonic spray chamber. Analysis was by peak profile with a window size of 0.025 nm with 21 increments per profile and an integration time of 0.5 seconds per increment. Analytical line was 259.940 nm. Samples and blanks were analysed with iron standards (0-20 mg/L) prepared in 6-8% HNO3, using a 1000 mg/L Fe ICP solution. Pooled-sample standards (0-20 mg/L) were prepared, using a pool of all final digests, to allow detection of possible matrix effects. Each sample/blank/standard was analysed in triplicates and the average value used for the calculations. The sample induction system (sample tubing, nebuliser and spray chamber) was thoroughly flushed between samples, blanks and standards.
# Statistical analyses were performed in GraphPad Prism 6. One-way ANOVA, followed by Tukey's multiple comparison's test, was used to assess the treatment effect, irrespective of the length of treatment. Two-way ANOVA was used to assess the effects of time (i.e. treatment length), treatment and the time x treatment interactions, followed by Bonferroni's multiple comparisons test. Two-way ANOVA was also used to assess the effect of sex, treatment and the sex x treatment interaction. P values <0.05 were considered significant in all analyses. Data are presented as means±SDs.
smiles,measurement,setting,value
"O=S(=O)([O-])[O-].[Fe+2] [FeSO4, ferrous sulphate]",Accumulation of liver iron over time with repeated oral dosing,"28 days versus 90 days of oral administration, FIG. 1B",iron seems to accumulate over time; also recorded: does accumulate
same,Total iron content in liver samples versus vehicle control group,"daily oral gavage 28 or 90 days, IHAT 28.5 mg iron/kg, FeSO4 20.00 mg iron/kg, FIG. 1A",significantly increased; also recorded: significant difference
